# Measured values as given in US11498928B2, “Macrocyclic spiroethers as Mcl-1 inhibitors” (ASCENTAGE PHARMA (SUZHOU) CO., LTD., priority 2019, dated 2022).
# Legend:
# [1] = system: OPM-2 cells; experiment: Cell viability assay (OPM-2 cells), CCK-8; type: cell-based; details: Homo sapiens, OPM-2, 24 h, 5% FBS
# Procedure, shortened: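 OPM-2 myeloma cells (20000/well) exposed to serially diluted compound for 24 h at 37 °C, 5% CO2, then incubated 4 h with CCK-8 and read at 450 nm. Readings normalized to vehicle; IC50 from nonlinear regression.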
# [2] = target: T1, Mcl-1 protein (residues 171-323) (Homo sapiens, UniProt Q07820); experiment: Inhibition of Mcl-1 by fluorescence polarization (FP) competitive binding assay with FAM-Bid tracer; details: 2 nM FAM-Bid, 20 nM Mcl-1, 30 min
# T1 construct: Tag-free Mcl-1 protein (residues 171-323) was used in the FP assay
# Procedure, shortened: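 Tag-free Mcl-1 (20 nM) with 2 nM FAM-Bid peptide in PBS, 0.01% BGG, 0.01% Triton X-100, 5% DMSO, 30 min at room temperature. FP read at Ex 485/Em 528 nm. IC50 from 10-point curves normalised to DMSO and no-protein controls.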
# [3] = system: NCI-H929 cells; experiment: Cell viability assay (NCI-H929 cells), CCK-8; type: cell-based; details: Homo sapiens, NCI-H929, 24 h, 5% FBS
# Procedure, shortened: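 NCI-H929 cells from ATCC were seeded at 20000 cells/well in 95 μL of culture medium in 96-well plates and grown for 4 hrs. Compounds, serially diluted in DMSO and further diluted in medium, were added as 5 μL, and cells were incubated for 24 hrs at 37° C. with 5% CO2. Viability was measured with CCK-8.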
# T1 sequence (Q07820 171-323): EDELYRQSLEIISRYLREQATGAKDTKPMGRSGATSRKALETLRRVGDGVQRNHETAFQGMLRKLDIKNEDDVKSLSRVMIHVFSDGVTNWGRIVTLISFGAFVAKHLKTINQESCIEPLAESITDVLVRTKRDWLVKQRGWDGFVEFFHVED
Structure (SMILES),IC50 [2],IC50 [3],IC50 [1]
"C[C@@H]1[C@@H](C)S(=O)(=O)NC(=O)c2ccc3c(c2)N(C[C@@H]2CC[C@H]2[C@@H](OCCN2CCNCC2)C2=C[C@H]1C2)C[C@@]1(CCCc2c1ccc(Cl)c2F)CO3 [compound 65, (1S,11′R,12′S,13′R,16′R,16a′R,18a′R,E)-6-chloro-5-fluoro-11′,12′-dimethyl-16′-(2-(piperazin-1-yl)ethoxy)-3,4,12′,13′,16′,16a′,17′,18′,18a′,19′-decahydro-1′H,2H,3′H, 11′H-spiro[naphthalene-1,2′-[5,7]etheno[13,15]methanocyclobuta[i][1,4]oxazepino[3,4-f][1]thia[2,7]diazacyclohexadecin]-8′(9′H)-one 10′,10′-dioxide]",15 nM,210 nM,247 nM
"C[C@@H]1[C@@H](C)S(=O)(=O)NC(=O)c2ccc3c(c2)N(C[C@@H]2CC[C@H]2[C@@H](OCCN2CCCC2)C2=C[C@H]1C2)C[C@@]1(CCCc2c1ccc(Cl)c2F)CO3 [compound 66, (1S,11′R,12′S,13′R,16′R,16a′R,18a′R,E)-6-chloro-5-fluoro-11′,12′-dimethyl-16′-(2-(pyrrolidin-1-yl)ethoxy)-3,4,12′,13′,16′,16a′,17′,18′,18a′,19′-decahydro-1′H,2H,3′H,11′H-spiro[naphthalene-1,2′-[5,7]etheno[13,15]methanocyclobuta[i][1,4]oxazepino[3,4-f][1]thia[2,7]diazacyclohexadecin]-8′(9′H)-one 10′,10′-dioxide]",15 nM,7.7 nM,31 nM
"C[C@@H]1[C@@H](C)S(=O)(=O)NC(=O)c2ccc3c(c2)N(C[C@@H]2CC[C@H]2[C@@H](OCC(=O)N2CCOCC2)C2=C[C@H]1C2)C[C@@]1(CCCc2c1ccc(Cl)c2F)CO3 [compound 67, (1S,11′R,12′S,13′R,16′R,16a′R,18a′R,E)-6-chloro-5-fluoro-11′,12′-dimethyl-16′-(2-morpholino-2-oxoethoxy)-3,4,12′,13′,16′,16a′,17′,18′,18a′,19′-decahydro-1′H,2H,3′H, 11′H-spiro[naphthalene-1,2′-[5,7]etheno[13,15]methanocyclobuta[i][1,4]oxazepino[3,4-f][1]thia[2,7]diazacyclohexadecin]-8′(9′H)-one 10′,10′-dioxide]",15 nM,97 nM,77 nM
"C[C@@H]1[C@@H](C)S(=O)(=O)NC(=O)c2ccc3c(c2)N(C[C@@H]2CC[C@H]2[C@@H](OCC(=O)N2CCCC2)C2=C[C@H]1C2)C[C@@]1(CCCc2c1ccc(Cl)c2F)CO3 [compound 68, (1S,11′R,12′S,13′R,16′R,16a′R,18a′R,E)-6-chloro-5-fluoro-11′,12′-dimethyl-16′-(2-oxo-2-(pyrrolidin-1-yl)ethoxy)-3,4,12′,13′,16′,16a′,17′,18′,18a′,19′-decahydro-1′H,2H,3′H, 11′H-spiro[naphthalene-1,2′-[5,7]etheno[13,15]methanocyclobuta[i][1,4]oxazepino[3,4-f][1]thia[2,7]diazacyclohexadecin]-8′(9′H)-one 10′,10′-dioxide]",15 nM,43 nM,47 nM
"CC(C)OC(=O)CO[C@H]1C2=C[C@@H](C2)[C@H](C)[C@@H](C)S(=O)(=O)NC(=O)c2ccc3c(c2)N(C[C@@H]2CC[C@H]21)C[C@@]1(CCCc2c1ccc(Cl)c2F)CO3 [compound 73, isopropyl 2-(((1S,11′R,12′S,13′R,16′R,16a′R,18a′R,E)-6-chloro-5-fluoro-11′,12′-dimethyl-10′,10′-dioxido-8′-oxo-3,4,8′,9′,12′,13′,16′,16a′,17′,18′,18a′,19′-dodecahydro-1′H,2H,3′H,11′H-spiro[naphthalene-1,2′-[5,7]etheno[13,15]methanocyclobuta[i][1,4]oxazepino[3,4-f][1]thia[2,7]diazacyclohexadecin]-16′-yl)oxy)acetate]",19 nM,150 nM,67 nM
"C[C@@H]1[C@@H](C)S(=O)(=O)NC(=O)c2ccc3c(c2)N(C[C@@H]2CC[C@H]2[C@@H](OCC(=O)O)C2=C[C@H]1C2)C[C@@]1(CCCc2c1ccc(Cl)c2F)CO3 [compound 74, 2-(((1S,11′R,12′S,13′R,16′R,16a′R,18a′R,E)-6-chloro-5-fluoro-11′,12′-dimethyl-10′,10′-dioxido-8′-oxo-3,4,8′,9′,12′,13′,16′,16a′,17′,18′,18a′,19′-dodecahydro-1′H,2H,3′H,11′H-spiro[naphthalene-1,2′-[5,7]etheno[13,15]methanocyclobuta[i][1,4]oxazepino[3,4-f][1]thia[2,7]diazacyclohexadecin]-16′-yl)oxy)acetic acid]",20 nM,450 nM,384 nM
"COC1CCN(CCO[C@H]2C3=C[C@@H](C3)[C@H](C)[C@@H](C)S(=O)(=O)NC(=O)c3ccc4c(c3)N(C[C@@H]3CC[C@H]32)C[C@@]2(CCCc3c2ccc(Cl)c3F)CO4)CC1 [compound 75, (1S,11′R,12′S,13′R,16′R,16a′R,18a′R,E)-6-chloro-5-fluoro-16′-(2-(4-methoxypiperidin-1-yl)ethoxy)-11′,12′-dimethyl-3,4,12′,13′,16′,16a′,17′,18′,18a′,19′-decahydro-1′H,2H,3′H,11′H-spiro[naphthalene-1,2′-[5,7]etheno[13,15]methanocyclobuta[i][1,4]oxazepino[3,4-f][1]thia[2,7]diazacyclohexadecin]-8′(9′H)-one 10′,10′-dioxide]",36 nM,51 nM,41 nM

# Stronger by IC50 [2], values ahead:
IC50 [2],IC50 [3],Structure (SMILES),IC50 [1]
14 nM,9.4 nM,"C[C@@H]1[C@@H](C)S(=O)(=O)NC(=O)c2ccc3c(c2)N(C[C@@H]2CC[C@H]2[C@@H](OCC(=O)N(C)C)C2=C[C@H]1C2)C[C@@]1(CCCc2c1ccc(Cl)c2F)CO3 [compound 64, 2-(((1 S, 11′R,12′S,13′R,16′R,16a′R,18a′R,E)-6-chloro-5-fluoro-11′,12′-dimethyl-10′,10′-dioxido-8′-oxo-3,4,8′,9′,12′,13′,16′,16a′,17′,18′,18a′,19′-dodecahydro-1′H,2H,3′H, 11′H-spiro[naphthalene-1,2′-[5,7]etheno[13,15]methanocyclobuta[i][1,4]oxazepino[3,4-f][1]thia[2,7]diazacyclohexadecin]-16′-yl)oxy)-N,N-dimethylacetamide]",120 nM
14 nM,69 nM,"C[C@@H]1[C@@H](C)S(=O)(=O)NC(=O)c2ccc3c(c2)N(C[C@@H]2CC[C@H]2[C@@H](OCC(=O)N2CCCCC2)C2=C[C@H]1C2)C[C@@]1(CCCc2c1ccc(Cl)c2F)CO3 [compound 69, (1S,11′R,12′S,13′R,16′R,16a′R,18a′R,E)-6-chloro-5-fluoro-11′,12′-dimethyl-16′-(2-oxo-2-(piperidin-1-yl)ethoxy)-3,4,12′,13′,16′,16a′,17′,18′,18a′,19′-decahydro-1′H,2H,3′H,11′H-spiro[naphthalene-1,2′-[5,7]etheno[13,15]methanocyclobuta[i][1,4]oxazepino[3,4-f][1]thia[2,7]diazacyclohexadecin]-8′(9′H)-one 10′,10′-dioxide]",40 nM
14 nM,81 nM,"C[C@@H]1[C@@H](C)S(=O)(=O)NC(=O)c2ccc3c(c2)N(C[C@@H]2CC[C@H]2[C@@H](OCC(=O)N2CCN(C)CC2)C2=C[C@H]1C2)C[C@@]1(CCCc2c1ccc(Cl)c2F)CO3 [compound 70, (1S,11′R,12′S,13′R,16′R,16a′R,18a′R,E)-6-chloro-5-fluoro-11′,12′-dimethyl-16′-(2-(4-methylpiperazin-1-yl)-2-oxoethoxy)-3,4,12′,13′,16′,16a′,17′,18′,18a′,19′-decahydro-1′H,2H,3′H, 11′H-spiro[naphthalene-1,2′-[5,7]etheno[13,15]methanocyclobuta[i][1,4]oxazepino[3,4-f][1]thia[2,7]diazacyclohexadecin]-8′(9′H)-one 10′,10′-dioxide]",35 nM
13 nM,6 nM,C[C@@H]1[C@@H](C)S(=O)(=O)NC(=O)c2ccc3c(c2)N(C[C@@H]2CC[C@H]2[C@@H](OCC2CCN(C)CC2)C2=C[C@H]1C2)C[C@@]1(CCCc2c1ccc(Cl)c2F)CO3 [compound 71],81 nM
14 nM,70 nM,"CCOC(=O)CO[C@H]1C2=C[C@@H](C2)[C@H](C)[C@@H](C)S(=O)(=O)NC(=O)c2ccc3c(c2)N(C[C@@H]2CC[C@H]21)C[C@@]1(CCCc2c1ccc(Cl)c2F)CO3 [compound 72, ethyl 2-(((1S,11′R,12′S,13′R,16′R,16a′R,18a′R,E)-6-chloro-5-fluoro-11′,12′-dimethyl-10′,10′-dioxido-8′-oxo-3,4,8′,9′,12′,13′,16′,16a′,17′,18′,18a′,19′-dodecahydro-1′H,2H,3′H,11′H-spiro[naphthalene-1,2′-[5,7]etheno[13,15]methanocyclobuta[i][1,4]oxazepino[3,4-f][1]thia[2,7]diazacyclohexadecin]-16′-yl)oxy)acetate]",89 nM
